Results published in patent US20040072892A1, “Cyanopyrrolidine derivatives” (priority 2000, published 2004).
Where a name gives a salt, the structure may show the parent alone.

Assays:
[1] = target: dipeptidyl peptidase IV (DPP IV) (Homo sapiens, UniProt P27487); assay: Dipeptidyl peptidase IV activity inhibition test (human plasma, Gly-Pro-4-methylcoumaryl-7-amide); format: biochemical; settings: room temperature, 2 hours, pH 7.8
Procedure: Experiment 1 [Dipeptidyl Peptidase IV Activity Inhibition Test]
Plasma including dipeptidyl peptidase IV was prepared by centrifugation of blood collected from healthy human volunteers. […] The fluorescence intensity at which the reaction time of the vehicle addition was 0 minute was regarded as a blank value, and the specific fluorescence intensity was calculated by subtracting the blank value from the determined value. The inhibition rate (%) of the dipeptidyl peptidase IV activity was calculated from the resulting specific fluorescence intensity according to the following formula. The dimethyl sulfoxide solution containing the test compound at high concentration of 1000-fold was prepared and diluted with the above-mentioned buffer solution for use.
Inhibition rate (%)=A/B×100
(A=fluorescence intensity of vehicle addition fluorescence intensity of the test compound addition)
(B=fluorescence intensity of the vehicle addition)

[2] = Concentration of test drug in blood by oral administration in rats (LC/MS/MS); format: in vivo; settings: Wistar rats, oral 1 mg/kg; for concentration at 5 min / concentration at 10 min / concentration at 15 min / concentration at 30 min / concentration at 1 h / concentration at 2 h: male, rat, plasma, mean of 2 samples; for concentration at 5 min: 5 min. after administration; for concentration at 10 min: 10 min. after administration; for concentration at 15 min: 15 min. after administration; for concentration at 30 min: 30 min. after administration; for concentration at 1 h: 1 hour after administration; for concentration at 2 h: 2 hours after administration
Procedure: Experiment 2 [Concentration of Test Drug in Blood by Oral Administration in Rats]
Wistar rats, male (8 weeks old) were used after fasting from the day before the test.
At 5, 10, 15, 30 minutes, 1 and 2 hours after the administration, each 0.2 ml of blood was collected from the jugular vein and, after centrifugation, the resulting plasma was used as sample.
That is, 50 μl of the plasma was added to 200 μl of acetonitrile, stirred and, after centrifugation, the supernatant was injected to a liquid chromatography wherein CAPCEL PAK C18, UG120 5 μm (150 mm long, 2 mm diameter) was used as a column, a mixture of 10 mM aqueous ammonium acetate solution and 90% aqueous acetonitrile solution (1:9) was used as an eluent, Sciex API3000 LC/MS/MS System (Perkin Elmer Sciex) was used as a MS/MS condition, ESI was used as an ionization method, and cation, and SRM (precursor ion and daughter ion) was used for monitoring.

Zucker fatty rats = assay: Oral glucose tolerance test (OGTT) in Zucker fatty rats; format: in vivo
Procedure: Experiment 3 [Effect of Dipeptidyl Peptidase IV Inhibitors on Oral Glucose Tolerance Test (OGTT) in Zucker Fatty Rats]
An OGTT in Zucker fatty rats was carried out referring to the method described in Diabetologia, 42, 1324-1331 (1999). In the test, male Zucker fatty rats, 10 weeks old (Charles River Japan, Inc.) were used after fasting for 16 hours. […] Before the begining of the test, blood was collected from the intraorbital vein using a heparin-treated tube for blood collection (manufactured by Drummond Scientific Co.). The test compounds were each dissolved in water for injection under Japanese Pharmacopoeia (manufactured by Hikari Pharmaceutical Co.) and orally administered in an amount of 2 ml/kg of the body weight. The same amount of water for injection under Japanese Pharmacopoeia only was administered to control group. […]
Plasma glucose levels of the frozen samples (mg/dl) were determined using Glucose CII test Wako (manufactured by Wako Fine Chemical Industry Co.), and the area under the curve (min·mg/dl) was calculated from the plasma glucose levels which were determined from the blood collected for 60 minutes after the glucose administration. […]

dipeptidyl peptidase IV (DPP IV), sequence (P27487 39-766 limits assumed): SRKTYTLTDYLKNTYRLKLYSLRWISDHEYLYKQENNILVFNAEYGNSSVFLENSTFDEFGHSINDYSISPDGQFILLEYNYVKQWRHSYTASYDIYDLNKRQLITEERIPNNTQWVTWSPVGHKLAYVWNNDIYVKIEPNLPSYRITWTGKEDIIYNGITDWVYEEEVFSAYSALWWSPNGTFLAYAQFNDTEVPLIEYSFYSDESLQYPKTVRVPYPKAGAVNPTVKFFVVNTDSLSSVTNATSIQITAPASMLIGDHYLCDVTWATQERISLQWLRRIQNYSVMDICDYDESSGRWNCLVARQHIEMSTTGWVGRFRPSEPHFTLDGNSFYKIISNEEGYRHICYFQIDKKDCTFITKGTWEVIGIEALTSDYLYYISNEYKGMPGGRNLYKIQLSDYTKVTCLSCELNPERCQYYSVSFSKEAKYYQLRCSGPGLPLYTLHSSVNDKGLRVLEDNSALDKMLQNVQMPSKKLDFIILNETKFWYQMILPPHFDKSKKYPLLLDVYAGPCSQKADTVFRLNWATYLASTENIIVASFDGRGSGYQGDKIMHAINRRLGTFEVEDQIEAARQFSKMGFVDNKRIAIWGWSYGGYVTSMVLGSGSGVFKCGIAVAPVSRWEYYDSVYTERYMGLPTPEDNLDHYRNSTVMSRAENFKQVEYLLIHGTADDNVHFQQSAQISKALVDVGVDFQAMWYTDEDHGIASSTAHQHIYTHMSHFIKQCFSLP

IC50 [1] [nM]	concentration at 5 min [2] [ng/mL]	concentration at 10 min [2] [ng/mL]	concentration at 15 min [2] [ng/mL]	concentration at 30 min [2] [ng/mL]	concentration at 1 h [2] [ng/mL]	concentration at 2 h [2] [ng/mL]	SMILES	concentration in plasma compared with Compound A (in words) [2]	elevation of the plasma glucose level (in words) (Zucker fatty rats; OGTT, p<0.05)	area under the curve of plasma glucose levels, mean ± S.E. (Zucker fatty rats; oral, glucose 1 g/kg 30 minutes after compound, 60 minutes after glucose administration) [mg·min/dL]
0.6							CC(C)(C)[C@H](N)C(=O)N1C[C@@H](F)C[C@H]1C#N [Example 17, (2S,4S)-1-[(2S)-2-amino-3,3-dimethylbutanoyl]-2-cyano-4-fluoropyrrolidine Hydrochloride]			
0.6	157	372	348	195	24	5	CC[C@H](C)[C@H](N)C(=O)N1C[C@@H](F)C[C@H]1C#N.Cl [Example 1, (2S,4S)-1-[(2S,3S)-2-amino-3-methylpentanoyl]-2-cyano-4-fluoropyrrolidine Hydrochloride]	higher concentration in plasma than Compound A	inhibited significantly the elevation of the plasma glucose level	13248 ± 619
0.7							CC(C)[C@H](N)C(=O)N1C[C@@H](F)C[C@H]1C#N [Example 15, (2S,4S)-1-[(2S)-2-amino-3-methylbutanoyl]-2-cyano-4-fluoropyrrolidine Hydrochloride]			
	122	146	113	28	6	2	CC[C@H](C)[C@H](N)C(=O)N1CCC[C@H]1C#N [Compound A, 1-[(2S,3S)-2-amino-3-methylpentanoyl]-2-(S)-cyanopyrrolidine trifluoroacetate, reference compound]			
